Like-named read-outs stand apart in the source and are kept apart here.
What was measured:
[1] = system: Yeast α-glucosidase enzyme; assay: Kinetic study of α-glucosidase inhibition (Lineweaver-Burk and secondary plots); type: biochemical; conditions: for Mode of inhibition of α-glucosidase / Km: Lineweaver-Burk plot; for Ki: from secondary plot, read-out: α-Glucosidase inhibition constant (Ki); for Km: PNPG substrate, read-out: Michaelis-Menten constant, Km (x-axis intersection), α-glucosidase
Description: (§1) The assay was based on the capacity of the sample to inhibit the hydrolysis of p-nitrophenyl-α-D-glucoside (PNPG) by α-glucosidase to release p-nitrophenol (PNP), a yellow color agent that can be monitored at 405 nm. Briefly, 10 μL of sample solution and 40 μL of 0.1 unit/mL α-glucosidase were incubated at 37 °C for 10 min. Then, 50 μL of 2 mM PNPG was added, and the mixture was further incubated at 37 °C for 20 min. One hundred microliters of 1 mM Na2CO3 was added, and the progress of the enzyme inhibition was monitored by measuring the absorbance at 405 nm. Acarbose was used as a positive control.
(§2) An enzyme kinetic analysis was performed based on the α-glucosidase or lipase inhibition assay as described above. The PNPG concentrations varied from 1 to 4 mM, and the 4-MUO concentrations varied from 0.063 to 1 mM in the absence or presence of the test compounds for kinetic assays of α-glucosidase and lipase, respectively. The inhibition mode was determined by double-reciprocal Lineweaver-Burk plot (1/V vs. 1/[S]). In order to estimate the Ki value, slopes of double-reciprocal lines were used to construct a secondary plot, and Ki was calculated from the line equation of the plot.

[2] = target: Yeast α-glucosidase enzyme; assay: α-Glucosidase inhibitory activity assay (PNPG hydrolysis); type: biochemical
Description: (§3) Optical rotations were obtained with a Perkin-Elmer 341 polarimeter (Boston, MA, USA). UV spectra were measured on a Milton Roy Spectronic 300 Array spectrophotometer, and IR was recorded on a Perkin-Elmer FT-IR 1760x spectrophotometer (Boston, MA, USA). High-resolution electrospray ionization mass spectra (HR-ESI-MS) were recorded with a Bruker micro TOF mass spectrometer (Billerica, MA, USA). NMR spectra were obtained with a Bruker Avance DPX-300 FT-NMR spectrometer (Billerica, MA, USA). Vacuum liquid chromatography (VLC) and column chromatography (CC) were performed on silica gel 60 (Merck, 70–230 µm, Darmstadt, Germany), silica gel 60 (Merck, […]) or Sephadex LH-20 (Pharmacia, Piscataway, NJ, USA). Yeast α-glucosidase enzyme, p-nitrophenol-α-D-glucopyranoside, pancreatic lipase, and 4-methylumbelliferyl oleate were purchased from Sigma Chemical, Inc. (St. Louis, MO, USA), and acarbose from Fluka Chemical (Buchs, Switzerland).
as §1

[3] = target: T1, lipase from porcine pancreas (Type II) (Sus scrofa, UniProt P00591); assay: Lipase inhibitory activity assay (4MUO substrate); type: biochemical
T1 construct: lipase from porcine pancreas (Type II); purchased Sigma Chemical, Inc. (St. Louis, MO, USA); host or cells: porcine pancreas
T1 sequence (P00591 1-450): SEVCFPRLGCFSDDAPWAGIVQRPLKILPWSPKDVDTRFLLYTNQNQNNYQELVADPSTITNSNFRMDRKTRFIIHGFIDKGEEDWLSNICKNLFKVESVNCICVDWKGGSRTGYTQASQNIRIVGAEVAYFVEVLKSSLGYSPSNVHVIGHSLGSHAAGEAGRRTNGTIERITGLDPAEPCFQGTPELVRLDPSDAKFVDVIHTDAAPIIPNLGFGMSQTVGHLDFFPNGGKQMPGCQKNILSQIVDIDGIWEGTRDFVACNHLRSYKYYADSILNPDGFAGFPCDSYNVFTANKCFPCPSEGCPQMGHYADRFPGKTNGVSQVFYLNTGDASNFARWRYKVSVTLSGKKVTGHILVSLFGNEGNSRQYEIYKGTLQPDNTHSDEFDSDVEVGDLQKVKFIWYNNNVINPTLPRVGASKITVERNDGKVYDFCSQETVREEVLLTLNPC
Description: as §3
(§4) The lipase inhibitory activity was assessed by measuring the amount of 4-methylumbelliferone (4MU), using 4-methylumbelliferyl oleate (4MUO) as substrate. The assay was modified from a previously reported method. In brief, 25 μL of a blank, plant extract vehicle, or a sample solution and 50 μL of 0.5 mM 4MUO in buffer consisting of 13 mM Tris-HCl, 150 mM NaCl, and 1.3 mM CaCl2 (pH 8.0), were mixed in 96-well microtiter plate. Twenty-five microliters of lipase from porcine pancreas (Type II), prepared at 0.5 mg/mL in the same buffer, was then added to start the enzyme reaction. After incubation at room temperature for 30 min, 100 μL of 0.1 M sodium citrate (pH 4.2) was added to stop the reaction. Fluorescence, corresponding to released 4MU, was then measured with excitation and emission wavelengths of 355 and 460 nm, respectively.

[4] = system: high-fat-diet (HFD)-induced obesity; design: method as in PMID 22312299, PMID 21320266; conditions: mice; by activating AMPK; cited from earlier work
[5] = target: T1, lipase from porcine pancreas (Type II); assay: Kinetic study of lipase inhibition (Lineweaver-Burk and secondary plots); type: biochemical; conditions: for Mode of inhibition of lipase: Lineweaver-Burk plot; for Ki: from secondary plot
Description: as §4, §2

IC50 [2] [µM]	inhibition at 20 µg/mL [3] [%]	α-Glucosidase % Inhibition (at 20 µg/mL) [2] [%]	Compound	other results
–	7.9 ± 0.8	10.0 ± 2.9	COc1cc(O)c2c(c1)O[C@H](c1ccccc1)CC2=O [Compound 1, Pinostrobin]	–
–	30.6 ± 2	9.6 ± 4.0	CC(C)=CCC/C(C)=C/CO [Compound 2, Geraniol]	–
12.7 ± 1.3	72.3 ± 0.1	94.7 ± 0.4	COc1cc(O)c(C(=O)[C@@H]2[C@H](CC=C(C)C)C(C)=CC[C@H]2c2ccccc2)c(O)c1 [Compound 3, Panduratin A]	Effect on high-fat-diet (HFD)-induced obesity [4]: attenuate high-fat-diet (HFD)-induced obesity; IC50 [3]: 17.1 ± 3.7 µM
7.5 ± 0.6	75.2 ± 1.1	97.8 ± 0.8	COc1cc(O)cc(O)c1C(=O)C1C(CC=C(C)C)C(C)=CCC1c1ccccc1 (stereo not shown) [Compound 4, Isopanduratin A]	Mode of inhibition of lipase [5]: mixed-type; Ki [5]: 5.79 µM; IC50 [3]: 15.1 ± 3.3 µM
–	3.7 ± 1.3	19.8 ± 0.1	O=C1C[C@@H](c2ccccc2)Oc2cc(O)cc(O)c21 [Compound 5, Pinocembrin]	–
–	7.7 ± 1.9	19.7 ± 0.9	COc1cc(O)cc(O)c1C(=O)/C=C/c1ccccc1 [Compound 6, Cardamonin]	–
4.6 ± 0.4	49.3 ± 2.7	98.5 ± 0.4	CC(C)=CC[C@@H]1C(C)=CC[C@@H](c2ccccc2)[C@@H]1C(=O)c1c(O)cc(O)cc1O [Compound 7, Hydroxypanduratin A]	Mode of inhibition of α-glucosidase [1]: non-competitive; Km [1]: 460 µM; Ki [1]: 4.03 µM
–	33.7 ± 1	9.5 ± 2.5	COc1cc(/C=C/c2ccccc2)oc(=O)c1 [Compound 8, 5,6-Dehydrokawain]	–
2.4 ± 0.4	69.1 ± 1.6	100.0 ± 0.0	COc1cc(O)c(C(=O)CC(c2ccccc2)c2c(O)cc3c(c2O)C(=O)CC(c2ccccc2)O3)c(O)c1 (stereo not shown) [Compound 9, rotundaflavanochalcone]	Mode of inhibition of lipase [5]: non-competitive; Ki [5]: 3.55 µM; Mode of inhibition of α-glucosidase [1]: non-competitive; Km [1]: 470 µM; Ki [1]: 7.19 µM; IC50 [3]: 25.8 ± 2.6 µM
32 ± 2.2	48.7 ± 3.5	88.1 ± 0.9	O=C(CCc1ccccc1)c1c(O)cc(O)cc1O [Compound 10, 2′,4′,6′-Trihydroxydihydrochalcone]	–
3.4 ± 0.9	67.8 ± 1.3	100.0 ± 0.2	COc1cc(O)cc(O)c1C(=O)CC(c1ccccc1)c1c(O)cc2c(c1O)C(=O)CC(c1ccccc1)O2 (stereo not shown) [Compound 12, iso-rotundaflavanochalcone]	IC50 [3]: 30.1 ± 2.3 µM
1.3 ± 0.2	80.5 ± 0.6	100.0 ± 0.1	O=C(CC(c1ccccc1)c1c(O)cc2c(c1O)C(=O)CC(c1ccccc1)O2)c1c(O)cc(O)cc1O (stereo not shown) [Compound 13, de-O-methyl rotundaflavanochalcone]	IC50 [3]: 10.6 ± 1.2 µM
–	70.9 ± 2	97.1 ± 0.5	COc1cc(O)cc(O)c1C(=O)/C=C/c1ccc(O)cc1 [Compound 14, 4,4′,6′-trihydroxy-2′-methoxychalcone]	–
–	44.7 ± 1.7	20.9 ± 2.1	COc1cc(O)cc2c1C(=O)CC(c1ccc(O)cc1)O2 (stereo not shown) [Compound 15, 4′-7-Dihydroxy-5-methoxyflavanone]	–
–	–	–	CCCCCCCCCCC[C@@H](C[C@@H]1OC(=O)[C@H]1CCCCCC)OC(=O)[C@H](CC(C)C)NC=O [Orlistat, reference compound]	Mode of inhibition of lipase [5]: competitive

Compound	IC50 [2] [µM]	inhibition at 20 µg/mL [3] [%]	α-Glucosidase % Inhibition (at 20 µg/mL) [2] [%]	other results
C[C@H]1O[C@H](O[C@H]2[C@H](O)[C@@H](O)[C@@H](O[C@H]3[C@H](O)[C@@H](O)C(O)O[C@@H]3CO)O[C@@H]2CO)[C@H](O)[C@@H](O)[C@@H]1N[C@H]1C=C(CO)[C@@H](O)[C@H](O)[C@H]1O (stereo partly shown) [Acarbose, reference compound]	1160 ± 23	–	–	Mode of inhibition of α-glucosidase [1]: competitive; Ki [1]: 167 µM; IC50 ([2]; rounded value): 1200 µM
Alpinetin [Compound 11]	–	–	7.0 ± 2.0	Lipase % Inhibition (at 20 µg/mL) ([3]; at 20 µg/mL): 8.0 ± 1.9%
